Tested on: Vibrio fischerio
Experiment: Microtox Response Test (bioluminescence of Microtox Acute Toxicity Reagent)
Assay type: cell-based
Details: pure anionic surfactant; index from EC50 Value (ppm) decreasing bioluminescence by 50%, 5 minutes
Text: The biological activity/mildness of a pure surfactant can measured directly via a Microtox Response Test hereinafter described in the Analytical Methods section and can be reported as a Microtox Response Index. By “pure surfactant” it is meant a chemical composition consisting essentially of a single surfactant entity, wherein the entity has essentially one chain length, head group and salt counter ion. From a standpoint of high biological activity, preferred anionic surfactants of the antimicrobial cleansing compositions of the present invention have a Microtox Response Index of less that about 150, more preferably less than about 100 and most preferably less than about 50. […]
For surfactant compositions which are mixtures of surfactants rather than pure surfactants (this includes “commercial grade” surfactants which typically comprise mixtures of entities with different chain lengths and potentially have higher levels of impurities), the Microtox Response Index for any individual surfactant component is not a reliable measurement of biological activity or mildness. In the case of mixtures, the Microtox Index of each individual component can be determined and the weighted average used as the Index for the mixture if all the individual components of the mixture are known. […]

| Compound | Microtox Index |
| --- | --- |
| ammonium laureth-3 sulfate | 120 |
| CCCCCCCCCCCCOS(=O)(=O)O.N [ALS, ammonium lauryl sulfate] | 1.0 |

Reference: patent US6482423B1, “Antimicrobial wipes which provide improved residual benefit versus gram positive bacteria” (The Procter & Gamble Company, priority 1999, dated 2002)
